Data from patent US11229662B2, “Compositions and methods for the treatment of aberrant angiogenesis” (The Schepens Eye Research Institute, Inc., priority 2016, dated 2022).
Entries after “also recorded” stand apart in the source; their conditions may differ.

What was measured:
HRMEC [1] = assay: Scratch-wound migration assay; type: cell-based, human; details: for wound closure (scratch assay): siRNA knockdown of RUNX1, 0-12 h
Protocol: (§1) FVMs were collected and CD31+ cells were isolated as previously described [Kim L A, et al. (2015) Mol Vis 21:673-687]. RNA-sequencing was performed using an Illumina HiSeq 2000 (Illumina Inc.), aligned with TopHat (Trapnell et al. (2009) Bioinformatics 25(9):1105-1111], and analyzed using Partek Flow, CuffLinks, EdgeR, and DESeq2. A mixed model ANOVA was used with a threshold false discovery rate (FDR) of <0.05 and fold change >±2 for significance. Gene Ontology was determined using the Database for Annotation, Visualization, and Integrated Discovery (DAVID). […] FVMs and cells were immunostained with standard protocols for paraffin embedded samples.
Migration was assessed with the scratch-wound assay (Liang C C et al. (2007) Nature Protocols 2(2):329-333). One scratch was generated per well and imaged on an EVOS® imaging system every three hours for 12 h. Images were analyzed with the TScratch Matlab module (Geback et al. (2009) Biotechniques 46(4):265-274).

HRMEC [2] = assay: Ki67 proliferation assay; type: cell-based, human
Protocol: FVMs and cells were incubated with mouse anti-RUNX1 (Santa Cruz) followed by biotinylated secondary antibody (Vector Laboratories), horseradish peroxidase (HRP)-labeled avidin (PerkinElmer), tyramide signal amplification (TSA, PerkinElmer), Vector Red chromogenic substrate (Vector Laboratories) and Gill no. 3 hematoxylin counterstain (Sigma-Aldrich). Immunofluorescent staining for CD31 (mouse anti-CD31; Dako) and Ki67 (rabbit anti-Ki67; Novus Biologicals) was performed as previously described (Kim L A, et al. (2015) Mol Vis 21:673-687). The number of Ki67 positive nuclei was averaged for three fields of view per sample at 20× magnification.
HRMEC were probed for proliferation with the Ki67 marker as follows: cells were permeabilized with 0.5% Triton X-100 in PBS for 5 min, blocked with 5% goat serum in PBS for 2 h at room temperature, incubated with primary antibody overnight at 4° C. (rabbit anti-Ki67 1:50; Novus Biologicals), and incubated with secondary for 2 h at room temperature (goat anti-rabbit Alexa Fluor 594 1:250; Life Technologies Corp.). Samples were imaged using an EVOS® imaging system. The number of Ki67 positive nuclei was averaged for three fields of view per sample at 20× magnification.

RUNX1 protein = assay: Western blot of RUNX1 protein; type: cell-based, human; details: 72 hours
Protocol: FIG. 13 is an image showing that a commercially available small molecule PIM3 inhibitor (PIM3 kinase inhibitor VII from EMD Millipore) reduced total RUNX1 protein levels in primary culture retinal endothelial cells in normal and high glucose conditions. Human microvascular retinal endothelial cells were cultured in EGM-2 supplemented with different concentrations of D-glucose for 72 hours in the presence of PIM3 inhibitor (PIM3 kinase inhibitor VII from EMD Millipore, Cat No. 526526, 0.05 μM) or vehicle (DMSO). After harvest, proteins were extracted using RIPA buffer and analyzed by western blot. RUNX1 was detected using antibodies from Santacruz (sc-365644). β-actin was used as a loading control.
FIG. 19 is set of images showing that gamma-secretase inhibition using Compound E small molecule (100 nM) reduces the expression of RUNX1 in primary culture human microvascular endothelial cells. […]
Western Blot Analysis: Cells were lysed using RIPA buffer (Cell Signaling Technology (CST)). […] Immunoreactive bands were visualized using the Odyssey Infrared Imaging System and band intensities normalized to β-actin were quantified using Image Studio version 2.1 (LI-COR).

C57BL/6J mice with OIR = assay: Oxygen-induced retinopathy (OIR) mouse model, retinal flat mounts; type: in vivo; details: P17
Protocol: OIR was induced in wild-type C57BL/6J mice as previously described (Smith L E et al., (1994) Invest Ophthalmol Vis Sci 35(1):101-111). Intravitreal injections with 1 μL of 75 μM Ro5-3335 RUNX1 inhibitor or DMSO were performed on left eyes only at P13 and P15 under ketamine/xylazine anesthesia. Pups were euthanized at P17 and eyes were collected, fixed in 4% paraformaldehyde, and used for retinal flat mounts (nvehicle=7; nRo5-3335=9). Avascular and neovascular areas were quantified using Photoshop as previously described (Connor H M et al., (2009) Nature Protocols 4(11):1565-1573).

HRMEC [3] = assay: Tube forming assay; type: cell-based, human
Protocol: HRMEC were treated overnight with 75 μM Ro5-3335 or DMSO before plating 20000 cells onto wells pre-coated with basement membrane extract (Trevigen). Cells were imaged six h after plating and tube formation was quantified using the Angiogenesis Analyzer plugin for ImageJ.

[4] = HIV treatment trial, Haubrich et al. (1995); cited from earlier work
RUNX1 = assay: qRT-PCR of RUNX1 expression; type: cell-based, human
Protocol: as §1
(§2) siRNA ([…]) (Integrated DNA Technologies; sequences in Table 4) was transfected for 6-8 h using DharmaFECT 1 (GE Life Sciences—Dharmacon) in Opti-MEM (Life Technologies).
(§3) RNA was extracted using RNeasy Mini Kits (Qiagen). Primers were purchased from Integrated DNA Technologies for 200 candidate genes (Table 4). Genes were excluded from further analysis if there was no amplification or amplification was outside the linear range. […] Fluorescent intensities were normalized to spike-in controls (ERCC RNA Spike-In Mix; Life Technologies), HPRT1, and B2M.

HES1 = assay: qRT-PCR of HES1 expression; type: cell-based, human; details: 100 nM; 72 hours; 5 mM and 30 mM D-glucose; vs DMSO
Protocol: FIG. 18 is a graph showing that gamma-secretase inhibition using Compound E small molecule (100 nM) reduced the expression of HES1, a canonical downstream target for Notch activity and RUNX1 in primary culture human microvascular endothelial cells. Reduction of HES1 and RUNX1 expression was effective under normal glucose (5 mM D-glucose and high glucose 30 mM D-glucose). Cells were incubated with Compound E or DMSO vehicle control in different glucose concentrations for 72 hours before harvest followed by qRT-PCR for each gene. HPRT1 expression was used as control.
as §3

IGFBP3 = assay: qRT-PCR of IGFBP3 expression; type: cell-based, human; details: RUNX1 siRNA knockdown
Protocol: as §2, §3
HRMEC were transfected with pCMV5-AML1c (Addgene Plasmid #12426) (the plasmid contains the sequence of RUNX1 encoding 480 amino acids; in the sequences listed herein this corresponds to RUNX1g) or pCMV5 empty vector using the HCAEC Nucleofector kit (VPB-1001; Program S-005) following manufacturer's optimized protocol.

RUNX2 = assay: qRT-PCR of RUNX2 expression; type: cell-based, human; details: RUNX1 siRNA; 48 hours post-transfection
Protocol: as §2, §3

RUNX3 = assay: qRT-PCR of RUNX3 expression; type: cell-based, human; details: RUNX1 siRNA; 48 hours post-transfection
Protocol: as §2, §3

[5] = intravitreal 75 μM at P13 and P15, vs vehicle
[6] = HRMEC treated overnight with 75 μM Ro5-3335, imaged 6 h after plating, vs DMSO

## siRNA-2: second RUNX1 siRNA; probably duplex HSC.RNAI.N001001890.12.1 (SEQ ID NO: 249/250) (chain 1 ACUAGAUGAUCAGACCAAGCCCGGG; chain 2 CCCGGGCUUGGUCUGAUCAUCUAGUUU; listed as RNA, chemistry not fully specified)
HRMEC [1]
  wound closure (scratch assay): functional inhibition

## N[C@@H]1CCCN(c2c(/C=C3\SC(=O)NC3=O)cccc2-c2ccccc2)C1 [AZD1208]
HRMEC [2]; treated 48 hours before proliferation assay, Ki67 marker, vs DMSO control
  reduction in cell migration: 43%

## CC/C(=N\NC(=O)c1ccnc(NCCCN2CCOCC2)c1)c1ccc(Cl)cc1O [PIM3 kinase inhibitor VII, N′-(1-(4-Chloro-2-hydroxyphenyl)propylidene)-2-((3-morpholinopropyl)amino)isonicotinohydrazide]
RUNX1 protein; 0.05 μM, normal and high glucose, vs DMSO
  total RUNX1 protein levels: reduced

## O=C1CN=C(c2ccc[nH]2)c2cc(Cl)ccc2N1 [Ro5-3335]
C57BL/6J mice with OIR; [5]
  avascular area (extent of vaso-obliteration): no significant change; also recorded: non-significant downward trend
  neovascularization / neovascular tufts: significant reduction
C57BL/6J mice with OIR; intravitreal 1 μL of 75 μM at P13 and P15, vs vehicle treated eyes
  reduction in neovascularization: 50%
HRMEC [3]; [6]
  meshes reduction: 46%
  nodes reduction: 35%
  total tube length reduction: 18%
HRMEC [3]; overnight treatment, 6 h after plating, vs vehicle treated cells
  tube forming capacity: reduced tube forming capacity

## CNC1=Nc2ccc(Cl)cc2C(c2ccc[nH]2)=NC1 [Ro24-7429]
[4]
  safety in clinical trial: safe

## C[C@H](NC(=O)Cc1cc(F)cc(F)c1)C(=O)N[C@H]1N=C(c2ccccc2)c2ccccc2N(C)C1=O [Compound E]
RUNX1; 100 nM, 72 hours, 5 mM and 30 mM D-glucose, vs DMSO
  RUNX1 expression (qRT-PCR): reduced
RUNX1 protein; 100 nM, 5 mM and 30 mM D-glucose
  RUNX1 expression (western blot): reduces
HES1
  HES1 expression: reduced

## RUNX1 siRNA: siRNA against human RUNX1, Integrated DNA Technologies; duplex hs.Ri.RUNX1.13.3 (SEQ ID NO: 247/248) (chain 1 CCUUUCAUGUUAAUCAAACAAGUGA; chain 2 UCACUUGUUUGAUUAACAUGAAAGGGA; listed as RNA, chemistry not fully specified)
HRMEC [2]; 48 h post transfection, vs transfection reagent alone or scramble siRNA
  cell number and proliferative capacity (Ki67 staining): significant reduction
HRMEC [2]; RUNX1 siRNA transfected EC vs controls
  fewer Ki67 positive cells: 60%
IGFBP3
  increase in IGFBP3 mRNA expression: 330%
RUNX2
  RUNX2 RNA expression: did not significantly affect; also recorded: no significant changes
RUNX3
  RUNX3 RNA expression: did not significantly affect; also recorded: no significant changes
RUNX1; RUNX1 siRNA, 48 hours post-transfection
  reduction of RUNX1 RNA expression: 60%
HRMEC [1]; RUNX1 siRNA knockdown, monitored 12 h, vs controls
  decrease in wound closure rate: 60%
HRMEC [1]
  wound closure (scratch assay): effectively inhibits wound closure
